Experimental data as given in article PMC8329502 (Toxicology Reports, 2021).

Target: T1, cytochrome P450 1A2 (CYP1A2) (Homo sapiens, UniProt P05177)
T1 sequence (P05177 2-516): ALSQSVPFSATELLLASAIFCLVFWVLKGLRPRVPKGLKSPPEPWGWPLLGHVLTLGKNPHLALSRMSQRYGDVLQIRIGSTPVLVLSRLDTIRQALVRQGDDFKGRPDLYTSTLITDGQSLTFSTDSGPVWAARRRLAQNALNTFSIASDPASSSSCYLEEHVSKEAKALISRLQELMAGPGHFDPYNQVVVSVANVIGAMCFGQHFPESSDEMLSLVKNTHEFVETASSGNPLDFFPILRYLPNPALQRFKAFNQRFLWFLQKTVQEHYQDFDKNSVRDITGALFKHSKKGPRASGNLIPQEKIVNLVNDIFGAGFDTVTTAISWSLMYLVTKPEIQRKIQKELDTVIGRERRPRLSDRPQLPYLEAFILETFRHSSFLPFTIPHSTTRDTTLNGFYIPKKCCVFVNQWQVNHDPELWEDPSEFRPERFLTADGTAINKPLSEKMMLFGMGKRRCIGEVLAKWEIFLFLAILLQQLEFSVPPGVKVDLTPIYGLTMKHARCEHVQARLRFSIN
Assay: […]-caffeine 3-N-demethylation in 50-donor pooled human liver microsomes
Type: biochemical

| SMILES | IC50 |
| --- | --- |
| COc1c2ccoc2cc2oc(=O)ccc12 [5-MOP, 5-methoxypsoralen] | 68.8 nM |
| COc1c2ccoc2c(OC)c2oc(=O)ccc12 [ISOP, isopimpinellin] | 277 nM |
